Results from patent publication US7182943B2, “Method and system for modulation of microbial cell characteristics” (Université Laval, priority 2002, dated 2007).
Like-named read-outs stand apart in the source and are kept apart here. No end group written: not given here.

Experiments:
B. longum [1] = experiment: Antibiotic sensitivity by the disc assay method, B. longum cells; type: cell-based, Bifidobacterium longum ATCC 15707; conditions: after approximately 6 days of continuous culture, tolerance increased with time
Method: (§1) FIG. 1 : Tolerance to kanamycin of L. diacetylactis and B. longum cells produced during continuous immobilized cell fermentation in reactors R1 and R2 for different culture times. J and R indicate the culture day and reactor, respectively. The antibiotic sensitivity was tested by the disc assay method.
(§2) Bifidobacterium longum ATCC 15707 and Lactococcus lactis ssp lactis biovar diacetylactis were immobilized separately in κ-carrageenan/locust bean gum gel beads with a 2% (v/v) inoculum, as described previously (Lamboley et al. 1997). Beads with diameters in the range 1–2 mm were selected by wet sieving and used for fermentation experiments. This mixed gel is a good matrix entrapment for temperature-sensitive cells, with good mechanical properties for long-term stability during continuous culture with immobilized cells (Lamboley et al., 1997; 1999; 2001). The κ-carrageenan/locust bean gum gel is stabilized by potassium and other cations present in the culture broth. […] Other gel compositions can also be used for the immobilization matrix, such as polysaccharides and proteins, with other chemical products.
(§3) Reactor R1 was inoculated with 15% (v/v) of each of the two types of gel beads containing a pure culture of the two strains which have been pre-colonized during a 16 h pH-controlled batch culture. […] The reactors in series were continuously fed with MRS medium (de Man et al., 1960) supplemented with KCl 0.15 M to ensure bead mechanical stability. Medium feed flow rate was set at 240 ml/h during the 17-day culture and pH was controlled at 6.0 by addition of NH4OH 6N. The bioreactor was held at temperatures varying between 32–37° C. and purged with CO2 to maintain anaerobic conditions, with mixing set at 120 rpm.
(§4) FIG. 1 and Table 1 illustrate the effect of different antibiotics on the increase of L. diacetylactis and B. longum tolerance as a function of culture time.

L. diacetylactis = experiment: Antibiotic tolerance by the disc assay method, L. diacetylactis cells; type: cell-based, Lactococcus lactis ssp lactis biovar diacetylactis; conditions: after approximately 6 days of continuous culture, tolerance increased with time
Method: as §1, §2, §3, §4

B. longum [2] = conditions: 30000 ppm H2O2, 1 min at 37° C.
Method: FIG. 4: B. longum survival to hydrogen peroxyde (H2O2) of control (free-cell batch culture) and experimental (continuous two-stage immobilized cells fermentation) cultures. […] A bacterial sample (1 ml) was incubated with 9 ml H2O2 solution at final concentrations of 0, 2000, 10000, 20000, or 30000 ppm H2O2, for 1 min at 37° C. After incubation, 0.1 ml of test sample was added to 9.9 ml catalase 2% to stop the reaction, and cell survival was determined by the pour plate method.
The resistance of cells in the effluents from R1 and R2 to different stresses was tested as a function of fermentation time and compared to a control treatment. Control cells were produced during free-cell batch fermentation in MRS medium inoculated at 2% and incubated for 18 h at 37° C. with no pH control.

Compound | Tolerance of cells produced with immobilized cell technology compared to the control (B. longum [1]) | Tolerance of cells produced with immobilized cell technology compared to the control (L. diacetylactis) | Cell survival (B. longum [2]; B. longum cells produced with ICT) [%] | Cell survival (B. longum [2]; B. longum control cells (free-cell batch culture)) [%]
O=C(N[C@H](CO)[C@H](O)c1ccc([N+](=O)[O-])cc1)C(Cl)Cl [Chloramphenicol] | increased tolerance | more tolerant |  | 
CC[C@H]1OC(=O)[C@H](C)[C@@H](O[C@H]2C[C@@](C)(OC)[C@@H](O)[C@H](C)O2)[C@H](C)[C@@H](O[C@@H]2O[C@H](C)C[C@H](N(C)C)[C@H]2O)[C@](C)(O)C[C@@H](C)C(=O)[C@H](C)[C@@H](O)[C@]1(C)O [Erythromycin] | increased tolerance |  |  | 
OO [H2O2, hydrogen peroxide] |  |  | 0.1 | 0.003
CN[C@H](CC(C)C)C(=O)N[C@H]1C(=O)N[C@@H](CC(N)=O)C(=O)N[C@H]2C(=O)N[C@H]3C(=O)N[C@H](C(=O)N[C@H](C(=O)O)c4cc(O)cc(O)c4-c4cc3ccc4O)[C@H](O)c3ccc(c(Cl)c3)Oc3cc2cc(c3O[C@@H]2O[C@H](CO)[C@@H](O)[C@H](O)[C@H]2O[C@H]2C[C@](C)(N)[C@H](O)[C@H](C)O2)Oc2ccc(cc2Cl)[C@H]1O [Vancomycin] | increased tolerance | more tolerant |  | 
CN(C)[C@@H]1C(=O)C(C(N)=O)=C(O)[C@@]2(O)C(=O)C3=C(O)c4c(O)cccc4[C@@](C)(O)[C@H]3C[C@@H]12 [tetracyclin] | increased tolerance | more tolerant |  | 
Nisin Z (ITSISLCTPGCKTGALMGCNMKTATCNCSIHVSK; also: lantibiotic nisin-Z: thioether rings and dehydro residues not placed; UniProt P29559 24-57, looked up) [bacteriocin tested among the antibiotics in the disc assay] | increased tolerance | more tolerant |  | 
